“Also recorded” adds a separate entry of the source.
Legend:
[1] = test system: isolated rat islets; assay: Stimulation of insulin secretion in isolated rat islets; type: cell-based; conditions: 10 μM concentration, enhancement comparable to 25 nM GLP-1, FIG. 4D
Experimental: E. Stimulation of Insulin Secretion in Isolated Rat Islets
As with HIT-T15 cells, it is known that stimulation of cAMP in isolated rat islets causes an increase in insulin secretion when the glucose concentration in the culture media is changed from 60 mg/dl to 300 mg/dl. RUP3 is an endogenously expressed GPCR in the insulin-producing cells of rat islets. Thus, RUP3 ligands can also be tested for their ability to stimulate GSIS in rat islet cultures. This assay is performed as follows: • A. Select 75-150 islet equivalents (IEQ) for each assay condition using a dissecting microscope. Incubate overnight in low-glucose culture medium. (Optional.) • B. Divide the islets evenly into triplicate samples of 25-40 islet equivalents per sample. Transfer to 40 μm mesh sterile cell strainers in wells of a 6-well plate with 5 ml of low (60 mg/dl) glucose Krebs-Ringers Buffer (KRB) assay medium. • C. Incubate 30 minutes (1 hour if overnight step skipped) at 37° C. and 5% CO2. Save the supernatants if a positive control for the RIA is desired. • D. Move strainers with islets to new wells with 5 ml/well low glucose KRB. […] Freeze and store at <−20° C. until insulin concentrations can be determined. • I. Insulin determinations are done as above, or by Linco Labs as a custom service, using their rat insulin RIA (Cat. #RI-13K). […]

[2] = target: T1, RUP3 (Homo sapiens, UniProt Q8TDV5); assay: 96-Well Cyclic AMP Membrane Assay for RUP3 (Membrane Cyclase Assay); type: biochemical; conditions: RUP3 membranes, cAMP Flashplate
T1 construct: seen in the listing only (N); seen in the listing only (C); expressed in transfected cells
T1 sequence (Q8TDV5 with tags, fused parts or gaps): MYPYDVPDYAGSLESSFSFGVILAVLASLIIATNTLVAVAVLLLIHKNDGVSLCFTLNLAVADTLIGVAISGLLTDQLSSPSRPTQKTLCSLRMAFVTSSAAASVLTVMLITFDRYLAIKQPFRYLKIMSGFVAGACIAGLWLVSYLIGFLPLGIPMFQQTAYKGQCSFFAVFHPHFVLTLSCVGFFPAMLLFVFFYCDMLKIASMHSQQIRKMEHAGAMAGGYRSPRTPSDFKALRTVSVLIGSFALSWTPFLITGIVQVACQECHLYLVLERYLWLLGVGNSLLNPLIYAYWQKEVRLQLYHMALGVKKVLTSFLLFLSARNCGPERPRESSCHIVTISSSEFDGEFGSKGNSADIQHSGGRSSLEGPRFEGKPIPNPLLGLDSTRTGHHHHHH
Experimental: 96-Well Cyclic AMP Membrane Assay for RUP3
Binding Buffer—filter through […] Nalgene filter and keep in refrigerator. All buffers and membranes should be kept cold (in ice bucket) while performing assay. • 20 mM Hepes, pH7.4 • 1 mM MgCl2 • 100 mM NaCl • 2× Regeneration Buffer (make in binding buffer): • 20 mM Phosphocreatine (1.02 gm/200 ml binding buffer) • 20 units Creatine phosphokinase (4 mg/200 ml) • 20 uM GTP (make up 10.46 mg/ml in binding buffer and add 200 ul/200 ml) • 0.2 mM ATP (22.04 mg/200 ml) • […] IBMX (44.4 mg IBMX dissolved in 1 ml 100% DMSO first and then add the entire amount to 200 ml of buffer).
Regeneration buffer can be aliquotted into 40-45 ml portions (in 50 ml sterile tubes) and kept frozen for up to 2 months. Simply put the tube in a beaker with room temperature water to thaw out the regeneration buffer on the day of the assay. […]
IC50s or EC50s are done in triplicate. […] The membranes are kept in ice all the time, and a polytron (Brinkmann polytron, model #PT-3100) is used (setting 6-7, for 15-20 seconds) to obtain a homogeneous membrane suspension.) Protein concentration is determined by Bradford protein assay kit using instructions given in the kit, using the standard supplied with the kit as a reference. […]

[3] = test system: HIT-T15 cells; assay: Stimulation of cAMP in HIT-T15 cells; type: cell-based, hamster; conditions: compared with adenyl cyclase activator forskolin, FIG. 4B
Experimental: C. Stimulation of cAMP in HIT-T15 Cells
HIT-T15 (ATCC CRL#1777) is an immortalized hamster insulin-producing cell line. These cells express RUP3 and therefore can be used to assess the ability of RUP3 ligands to stimulate or inhibit cAMP accumulation via its endogenously expressed receptor. In this assay, cells are grown to 80% confluence and then distributed into a 96-well Flashplate (50,000 cells/well) for detection of cAMP via a “cAMP Flashplate Assay” (NEN, Cat #SMP004). Briefly, cells are placed into anti-cAMP antibody-coated wells that contain either vehicle, the test ligand(s) at a concentration of interest, or 1 uM forskolin. The latter is a direct activator of adenylyl cyclase and serves as a positive control for stimulation of cAMP in HIT-T15 cells. All conditions are tested in triplicate. After ail hour incubation to allow for stimulation of cAMP, a Detection Mix containing ^125I-cAMP is added to each well and the plate is allowed to incubate for another 1 hour. The wells are then aspirated to remove unbound ^125I-cAMP. Bound ^125I-cAMP is detected using a Wallac Microbeta Counter. The amount of cAMP in each sample is determined by comparison to a standard curve, obtained by placing known concentrations of cAMP in some wells on the plate. […]

[4] = test system: HIT-T15 cells; assay: Stimulation of insulin secretion in HIT-T15 cells; type: cell-based, hamster; conditions: HIT-T15 cells exposed to 15 mM glucose; compared with forskolin; FIG. 4C
Experimental: D. Stimulation of Insulin Secretion in HIT-T15 Cells
It is known that stimulation of cAMP in HIT-T15 cells causes an increase in insulin secretion when the glucose concentration in the culture media is changed from 3 mM to 15 mM. Thus, RUP3 ligands can also be tested for their ability to stimulate glucose-dependent insulin secretion (GSIS) in HIT-T15 cells. In this assay, 30,000 cells/well in a 12-well plate are incubated in culture media containing 3 mM glucose and no serum for 2 hours. The media is then changed; wells receive media containing either 3 mM or 15 mM glucose, and in both cases the media contains either vehicle (DMSO) or RUP3 ligand at a concentration of interest. Some wells receive media containing 1 uM forskolin as a positive control. All conditions are tested in triplicate. Cells are incubated for 30 minutes, and the amount of insulin secreted into the media is determined by ELISA, using a kit from either Peninsula Laboratories (Cat #ELIS-7536) or Crystal Chem Inc. (Cat #90060).
In the first of these, RUP3 agonists are used to stimulate HIT-T15 cells, which express RUP3 at significant levels, as indicated in the Northern blot shown in FIG. 4A.

[5] = test system: db mice (C57BL/KsOlahsd-Leprdb, diabetic); assay: Acute response of db mice to RUP3 agonist (blood glucose); type: in vivo; conditions: male db mice; 1 μg/kg, intraperitoneally; FIG. 5B
Experimental: B. […] Male db mice (C57BL/KsOlahsd-Leprdb, diabetic, Harlan) at age of 10 weeks were randomly grouped (n=6) to receive vehicle (oral gavage), Compound B70 (60 mg/kg, oral gavage), or Ex-4 (1 μg/kg, intraperitoneally). After compound administration, food was removed and blood glucose levels were determined at indicated times as shown in FIG. 5B. Reduction in blood glucose at each time point was expressed as percentage of original glucose levels, averaged from six animals for each group.

Molecule | glucose-dependent insulin release [1] | IC50 [2] [nM] | other results
CCOC(=O)C1CCN(c2ncnc(Oc3ccc(C4NC(=O)NC4=O)cc3)c2[N+](=O)[O-])CC1 (stereo not shown) [Compound A48, 1-{6-[4-(2,5-Dioxo-imidazolidin-4-yl)-phenoxy]-5-nitro-pyrimidin-4-yl}-piperidine-4-carboxylic acid ethyl ester] | enhanced glucose-dependent insulin release compared to control | – | –
CCOC(=O)C1CCN(c2ncnc(Oc3ccc(CCC(C)=O)cc3)c2[N+](=O)[O-])CC1 [Compound A51, 1-{5-Nitro-6-[4-(3-oxo-butyl)-phenoxy]-pyrimidin-4-yl}-piperidine-4-carboxylic acid ethyl ester] | enhanced glucose-dependent insulin release compared to control | – | –
CCCC1CCN(c2ncnc(Oc3ccc(C(=O)c4ccc(F)cc4)cc3)c2[N+](=O)[O-])CC1 [Compound A124, (4-Fluoro-phenyl)-{4-[5-nitro-6-(4-propyl-piperidin-1-yl)-pyrimidin-4-yloxy]-phenyl}-methanone] | – | 241 | –
CS(=O)(=O)c1ccc(Nc2ncnc(N3CCC(Sc4ccccc4)CC3)c2[N+](=O)[O-])cc1 [Compound B84, (4-Methanesulfonyl-phenyl)-[5-nitro-6-(4-phenylsulfanyl-piperidin-1-yl)-pyrimidin-4-yl]-amine] | – | 50 | cAMP production in HIT cells [3]: stimulates cAMP production in HIT cells, at a level comparable to that seen with the adenyl cyclase activator forskolin; insulin secretion in HIT cells [4]: stimulates insulin secretion in HIT cells exposed to 15 mM glucose, once again at a level comparable to that seen with the adenyl cyclas activator forskolin; also recorded: stimulates insulin secretion in HIT cells exposed to 15 mM glucose, at a level comparable to that seen with the adenylcyclase activator forskolin
extendin-4 [Ex-4, reference compound] | – | – | blood glucose levels compared to vehicle control [5]: significantly reduces glucose levels compared to vehicle control

Reference: patent publication US8293751B2, “1,2,3-trisubstituted aryl and heteroaryl derivatives as modulators of metabolism and the prophylaxis and treatment of disorders related thereto such as diabetes and hyperglycemia” (Arena Pharmaceuticals, Inc., priority 2003, dated 2012)
